Data as given in patent US8466107B2, “Fibrin-binding peptides and conjugates thereof” (Bracco Imaging SpA, priority 2006, dated 2013).
Bridge positions count the residues as written; N and C are the ends.

System: neuroblastoma (Neuro-2a) tumor
Assay: In vivo MRI test of fibrin imaging in neuroblastoma tumor mouse model
Conditions: mice with neuroblastoma tumor; 25 μmol/kg iv.; T1 weighted MRI at 2T, 4 h post injection
Excerpt: Three groups of 5 mice each, inoculated with 2·10^6 neuroblastoma cells with PBS, were formed and tested as follows: • Group a: Reference compound 2, • Group b: Chelate Complex 1 • Group c: ProHance® (see Protocol)
At day-10 post tumor cells inoculation, at least 4 mice per group with similar tumor size (5-10 mm in diameter) were selected for the in vivo MRI tests. After pre-contrast MRI acquisition (T1 and T2 high resolution 2D spin-echo and 3D gradient echo images), the test compounds were administered (25 μmol/kg iv.) and MRI was performed at 4 h and 24 h post injection. Maximum signal intensity was measured in the entire tumor area and in each post contrast image covering the whole tumor and the signal was compared to the pre-contrast images. At the end of MRI exams, all animals were sacrificed and the tumor, blood, liver, kidneys and femoral bone were removed and prepared for Gd assay by ICP-AES. […]
The mean signal intensity was measured within a region of interest (ROI) including the entire tumor, drawn by an operator on each MR image using dedicated software (MR Research Systems Ltd, Surrey UK). Signal intensity enhancement (Enh %) was determined as: Enh%=100*(SIx(t)−SI0)/SI0 […]

Substance: Chelated Complex 1: Gd chelated complex (four DTPA-Glu units on branched lysine linker) conjugated to the fibrin-binding peptide; MRI contrast agent (Ac-WQPCPAESWTFCWDPGGGK-NH2; disulfide 4-12; not fully specified (some residues); also: further groups not given here)
- tumor signal enhancement: significant tumor signal enhancement
